Test results as given in ChEMBL document CHEMBL5113511, “Discovery of Small-Molecule Degraders of the CDK9-Cyclin T1 Complex for Targeting Transcriptional Addiction in Prostate Cancer” (J Med Chem, 2022).
Values belong to the compound of their own block, whether it stands above or below them. Active and inactive are the calls of the source. No cut-off for these calls is given here.

Tests used:
[1] = test system: CWR22R; test: Induction of cell cycle arrest in human 22Rv1 cells assessed as accumulation of cells at sub-G1 phase at 0.3 to 1 uM incubated for 24 hrs by propidium iodide staining based flow cytometry; type: functional; settings: dose 0.3-1 µM
[2] = test system: CWR22R; test: Upregulation of […] protein expression in human 22Rv1 cells at 2 uM incubated for 24 hrs by DIA-based proteomics analysis; type: functional, cell-based
[3] = test system: CWR22R; test: Induction of cell cycle arrest in human 22Rv1 cells assessed as accumulation of cells at G1 phase at 0.3 to 1 uM incubated for 24 hrs by propidium iodide staining based flow cytometry; type: functional; settings: dose 0.3-1 µM
[4] = test system: CWR22R; test: Induction of apoptosis in human 22Rv1 cells at 0.3 to 1 uM incubated for 24 hrs by AnnexinV-FITC/PI staining based flow cytometry; type: functional, cell-based; settings: dose 0.3-1 µM
[5] = test system: CWR22R; test: Downregulation of cyclin D1 protein expression in human 22Rv1 cells at 2 uM incubated for 24 hrs by DIA-based proteomics analysis; type: functional, cell-based
[6] = test system: CWR22R; test: Antiproliferative activity against human 22Rv1 cells assessed as reduction in cell viability measured after 5 days by CellTiter-Glo assay; type: functional, cell-based; settings: 22Rv1, 120 h
[7] = molecular target: T1, Cyclin-dependent kinase 9 (Homo sapiens, UniProt P50750); test: Induction of HyT-mediated degradation of CDK9 in human 22Rv1 cells at 0.3 to 3 uM incubated for 24 hrs by immunoblot analysis; type: cell-based; settings: dose 0.3-3 µM
[8] = molecular target: T2, Cyclin-T1 (Homo sapiens, UniProt O60563); test: Induction of HyT-mediated degradation of Cyclin T1 in human 22Rv1 cells at 0.3 to 3 uM incubated for 24 hrs by immunoblot analysis; type: cell-based; settings: dose 0.3-3 µM
[9] = molecular target: T2, Cyclin-T1; test: Induction of HyT-mediated degradation of Cyclin T1 in human 22Rv1 cells assessed as reduction in Cyclin T1 level at 3 uM incubated for 24 hrs by immunoblot analysis; type: cell-based
[10] = molecular target: T1, Cyclin-dependent kinase 9; test: Induction of HyT-mediated degradation of CDK9 in human 22Rv1 cells assessed as reduction in CDK9 protein level at 3 uM incubated for 24 hrs by immunoblot analysis relative to control; type: cell-based; parameters: scale not given: the % may be the effect or the level left
[11] = molecular target: T1, Cyclin-dependent kinase 9; test: Induction of CDK9 degradation in human 22Rv1 cells at 3 uM incubated for 24 hrs by DIA-based proteomics analysis; type: cell-based
[12] = molecular target: T1, Cyclin-dependent kinase 9; test: Induction of CDK9 degradation in human 22Rv1 cells assessed as downregulation of AR protein expression at 3 uM measured for 36 hrs by DIA-based proteomics analysis; type: cell-based
[13] = molecular target: T1, Cyclin-dependent kinase 9; test: Induction of CDK9 degradation in human 22Rv1 cells assessed as decrease in cyclin C protein expression at 3 uM measured for 36 hrs by DIA-based proteomics analysis; type: cell-based
[14] = molecular target: Cyclin-dependent kinase 1 (Homo sapiens) (UniProt P06493); test: Induction of CDK1 degradation in human 22Rv1 cells assessed as downregulation of CDK1 level at 3 uM measured after 12 hrs by DIA-based proteomics analysis; type: cell-based
[15] = molecular target: T1, Cyclin-dependent kinase 9; test: Induction of CDK9 degradation in human 22Rv1 cells assessed as downregulation of MCL1 protein expression at 0.3 to 3 uM incubated for 24 hrs by immunoblot analysis; type: cell-based; settings: dose 0.3-3 µM
[16] = molecular target: T1, Cyclin-dependent kinase 9; test: Induction of CDK9 degradation in human 22Rv1 cells assessed as inhibition of Ser2 phosphorylation of RNA Pol II CTD at 0.3 to 3 uM incubated for 24 hrs by immunoblot analysis; type: cell-based; settings: dose 0.3-3 µM
[17] = molecular target: Cyclin-dependent kinase 11B (Homo sapiens) (UniProt P21127); test: Induction of CDK11B degradation in human 22Rv1 cells at 3 uM measured after 36 hrs by DIA-based proteomics analysis; type: cell-based
[18] = molecular target: T2, Cyclin-T1; test: Induction of Cyclin T1 degradation in human 22Rv1 cells assessed as cyclin T1 level at 3 uM incubated for 24 hrs by DIA-based proteomics analysis; type: cell-based
[19] = molecular target: T1, Cyclin-dependent kinase 9; test: Induction of CDK9 degradation in human 22Rv1 cells assessed as decrease in cyclin D1 protein expression at 3 uM measured for 36 hrs by DIA-based proteomics analysis; type: cell-based
[20] = molecular target: Cyclin-dependent kinase 7 (Homo sapiens) (UniProt P50613); test: Induction of CDK7 degradation in human 22Rv1 cells assessed as downregulation of CDK7 level at 3 uM measured after 12 hrs by DIA-based proteomics analysis; type: cell-based
[21] = test system: CWR22R; test: Downregulation of CCNT1 mRNA expression in human 22Rv1 cells at 2 uM incubated for 24 hrs by transcriptome RNA-seq analysis; type: functional, cell-based
[22] = molecular target: Cyclin-dependent kinase 6 (Homo sapiens) (UniProt Q00534); test: Induction of CDK6 degradation in human 22Rv1 cells assessed as downregulation of CDK6 level at 3 uM measured after 12 hrs by DIA-based proteomics analysis; type: cell-based
[23] = molecular target: T1, Cyclin-dependent kinase 9; test: Induction of CDK9 degradation in human 22Rv1 cells assessed as decrease in cyclin A2 protein expression at 3 uM measured for 36 hrs by DIA-based proteomics analysis; type: cell-based
[24] = molecular target: T1, Cyclin-dependent kinase 9; test: Induction of degradation of CDK9 in human 22Rv1 cells assessed as reduction in CDK9 level at 2 uM measured after 9 hrs by immunoblot analysis; type: cell-based
[25] = test system: CWR22R; test: Inhibition of colony formation in human 22Rv1 cells at 100 to 200 nM treated for 14 days with replacement with fresh medium containing compound for every 48 hrs by crystal violet staining based analysis; type: functional, cell-based; settings: dose 100-200 nM, time 14.0 day
[26] = molecular target: T1, Cyclin-dependent kinase 9; test: Induction of degradation of CDK9 in human 22Rv1 cells at 2 uM measured after 0 to 7 hrs by immunoblot analysis; type: cell-based; settings: time 0-7 hrs
[27] = molecular target: T2, Cyclin-T1; test: Induction of degradation of Cyclin T1 in human 22Rv1 cells at 3 uM measured for 36 hrs by DIA-based proteomics analysis; type: cell-based
[28] = molecular target: T1, Cyclin-dependent kinase 9; test: Induction of degradation of CDK9 in human 22Rv1 cells at 3 uM measured for 36 hrs by DIA-based proteomics analysis; type: cell-based
[29] = molecular target: T1, Cyclin-dependent kinase 9; test: Induction of CDK9 degradation in human 22Rv1 cells assessed as decrease in cyclin B1 protein expression at 3 uM measured for 36 hrs by DIA-based proteomics analysis; type: cell-based
[30] = molecular target: Cyclin-dependent kinase 4 (Homo sapiens) (UniProt P11802); test: Induction of CDK4 degradation in human 22Rv1 cells assessed as downregulation of CDK4 level at 3 uM measured after 12 hrs by DIA-based proteomics analysis; type: cell-based
[31] = molecular target: T2, Cyclin-T1; test: Induction of HyT-mediated degradation of Cyclin T1 in human 22Rv1 cells at 3 uM incubated for 24 hrs by immunoblot analysis relative to control; type: cell-based
[32] = molecular target: T1, Cyclin-dependent kinase 9; test: Induction of HyT-mediated degradation of CDK9 in human 22Rv1 cells at 3 uM incubated for 24 hrs by immunoblot analysis relative to control; type: cell-based

T1 sequence (P50750 whole entry): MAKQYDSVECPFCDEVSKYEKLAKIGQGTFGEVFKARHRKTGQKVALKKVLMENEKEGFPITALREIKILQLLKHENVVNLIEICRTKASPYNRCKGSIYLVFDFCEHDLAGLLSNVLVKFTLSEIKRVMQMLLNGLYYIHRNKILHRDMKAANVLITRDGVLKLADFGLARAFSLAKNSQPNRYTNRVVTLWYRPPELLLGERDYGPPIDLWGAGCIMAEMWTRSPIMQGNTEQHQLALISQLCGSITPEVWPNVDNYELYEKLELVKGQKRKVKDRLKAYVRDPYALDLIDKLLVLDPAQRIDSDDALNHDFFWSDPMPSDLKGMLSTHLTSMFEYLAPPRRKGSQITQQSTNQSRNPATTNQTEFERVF
T2 sequence (O60563 whole entry): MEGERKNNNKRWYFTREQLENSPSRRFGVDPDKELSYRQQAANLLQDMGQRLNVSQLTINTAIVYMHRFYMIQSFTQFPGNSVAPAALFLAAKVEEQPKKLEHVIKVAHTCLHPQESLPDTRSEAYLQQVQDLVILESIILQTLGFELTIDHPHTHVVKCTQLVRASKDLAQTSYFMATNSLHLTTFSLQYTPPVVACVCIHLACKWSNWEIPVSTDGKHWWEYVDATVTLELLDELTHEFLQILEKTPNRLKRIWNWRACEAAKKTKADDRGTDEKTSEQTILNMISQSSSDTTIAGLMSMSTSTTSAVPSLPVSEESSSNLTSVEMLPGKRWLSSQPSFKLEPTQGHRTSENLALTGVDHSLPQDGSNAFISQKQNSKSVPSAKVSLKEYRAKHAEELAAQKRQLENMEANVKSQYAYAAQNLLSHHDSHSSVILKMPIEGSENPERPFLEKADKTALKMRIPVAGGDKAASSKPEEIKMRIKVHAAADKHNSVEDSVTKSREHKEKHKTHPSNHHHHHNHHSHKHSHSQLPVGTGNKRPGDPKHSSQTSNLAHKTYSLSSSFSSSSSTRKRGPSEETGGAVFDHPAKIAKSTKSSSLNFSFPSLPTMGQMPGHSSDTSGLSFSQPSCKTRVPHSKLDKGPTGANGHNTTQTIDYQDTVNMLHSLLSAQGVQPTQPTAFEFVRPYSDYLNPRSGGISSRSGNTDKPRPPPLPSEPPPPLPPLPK
Sequence of Cyclin-dependent kinase 4 (Homo sapiens) (P11802 whole entry): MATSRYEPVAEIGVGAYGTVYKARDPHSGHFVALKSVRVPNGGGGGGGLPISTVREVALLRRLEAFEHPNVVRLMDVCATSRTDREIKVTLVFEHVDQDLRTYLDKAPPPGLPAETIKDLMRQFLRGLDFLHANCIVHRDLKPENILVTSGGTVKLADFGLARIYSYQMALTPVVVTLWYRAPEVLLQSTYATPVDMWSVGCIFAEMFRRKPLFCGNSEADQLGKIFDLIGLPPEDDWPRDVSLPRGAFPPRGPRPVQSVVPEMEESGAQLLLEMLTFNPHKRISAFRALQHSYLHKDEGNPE
Sequence of Cyclin-dependent kinase 6 (Homo sapiens) (Q00534 whole entry): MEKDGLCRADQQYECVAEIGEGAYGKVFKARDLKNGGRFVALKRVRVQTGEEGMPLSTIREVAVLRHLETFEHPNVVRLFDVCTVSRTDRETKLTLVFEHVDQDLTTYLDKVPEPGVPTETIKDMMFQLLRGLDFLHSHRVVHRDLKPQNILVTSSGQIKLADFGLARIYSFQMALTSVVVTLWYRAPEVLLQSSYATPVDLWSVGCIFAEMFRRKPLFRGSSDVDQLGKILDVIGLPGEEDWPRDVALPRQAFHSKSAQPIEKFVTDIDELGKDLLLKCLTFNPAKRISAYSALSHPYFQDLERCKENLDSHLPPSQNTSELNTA
Sequence of Cyclin-dependent kinase 11B (Homo sapiens) (P21127 whole entry): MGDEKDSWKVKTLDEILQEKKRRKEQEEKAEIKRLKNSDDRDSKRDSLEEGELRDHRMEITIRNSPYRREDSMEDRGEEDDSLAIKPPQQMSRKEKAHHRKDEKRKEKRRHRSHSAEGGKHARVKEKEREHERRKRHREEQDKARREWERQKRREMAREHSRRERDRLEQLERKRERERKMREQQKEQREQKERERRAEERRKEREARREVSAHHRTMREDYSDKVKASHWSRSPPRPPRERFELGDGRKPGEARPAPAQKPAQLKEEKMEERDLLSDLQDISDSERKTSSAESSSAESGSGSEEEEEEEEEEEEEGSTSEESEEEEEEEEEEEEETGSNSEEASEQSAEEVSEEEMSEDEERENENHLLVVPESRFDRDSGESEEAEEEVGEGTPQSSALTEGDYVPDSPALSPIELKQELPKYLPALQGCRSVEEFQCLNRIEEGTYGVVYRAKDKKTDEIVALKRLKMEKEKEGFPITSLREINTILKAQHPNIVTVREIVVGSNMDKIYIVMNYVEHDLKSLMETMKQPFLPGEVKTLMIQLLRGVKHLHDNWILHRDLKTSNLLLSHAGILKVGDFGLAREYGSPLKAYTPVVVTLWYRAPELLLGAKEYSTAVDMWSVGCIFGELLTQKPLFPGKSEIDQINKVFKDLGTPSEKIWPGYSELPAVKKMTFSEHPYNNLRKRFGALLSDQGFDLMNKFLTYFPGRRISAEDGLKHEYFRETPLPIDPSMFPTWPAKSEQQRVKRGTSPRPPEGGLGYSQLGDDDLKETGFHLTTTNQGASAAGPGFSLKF
Sequence of Cyclin-dependent kinase 7 (Homo sapiens) (P50613 whole entry): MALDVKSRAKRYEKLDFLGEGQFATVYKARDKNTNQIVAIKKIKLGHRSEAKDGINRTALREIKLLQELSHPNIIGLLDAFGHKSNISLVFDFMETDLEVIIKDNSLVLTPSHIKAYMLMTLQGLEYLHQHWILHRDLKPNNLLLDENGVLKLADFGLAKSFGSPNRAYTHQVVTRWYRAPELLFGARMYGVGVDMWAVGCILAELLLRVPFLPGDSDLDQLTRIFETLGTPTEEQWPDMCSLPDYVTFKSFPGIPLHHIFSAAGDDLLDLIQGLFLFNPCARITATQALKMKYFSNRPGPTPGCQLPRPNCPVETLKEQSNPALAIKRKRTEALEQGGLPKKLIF
Sequence of Cyclin-dependent kinase 1 (Homo sapiens) (P06493 whole entry, looked up): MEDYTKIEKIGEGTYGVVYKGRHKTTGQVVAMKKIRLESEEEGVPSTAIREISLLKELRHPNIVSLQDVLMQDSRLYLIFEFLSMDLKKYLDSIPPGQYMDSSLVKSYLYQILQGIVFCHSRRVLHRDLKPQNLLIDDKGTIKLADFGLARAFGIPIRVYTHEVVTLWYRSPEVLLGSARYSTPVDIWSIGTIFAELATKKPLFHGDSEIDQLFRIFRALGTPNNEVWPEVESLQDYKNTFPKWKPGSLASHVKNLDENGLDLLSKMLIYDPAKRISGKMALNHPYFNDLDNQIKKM

SMILES: CC(C)(C)c1cnc(CSc2cnc(NC(=O)C3CCNCC3)s2)o1 [BMS-387032]
Activity [1]: Active
Activity [2]: Active
Activity [3]: Active
Activity [4]: Active
inhibition [5]: Active
IC50 [6]: 0.384 µM

Activity [7]: Active
Activity [8]: Active
SMILES: CC(C)(C)c1cnc(CSc2cnc(NC(=O)C3CCN(S(=O)(=O)CCNC(=O)CC45CC6CC(CC(C6)C4)C5)CC3)s2)o1

Activity [7]: Active
Activity [8]: Active
SMILES: CC(C)(C)OC(=O)NC(=NCCC[C@@H](NC(=O)OC(C)(C)C)C(=O)NCCS(=O)(=O)N1CCC(C(=O)Nc2ncc(SCc3ncc(C(C)(C)C)o3)s2)CC1)NC(=O)OC(C)(C)C

Activity [9]: Active
Activity [7]: Active
SMILES: CC(C)[C@@H]1CC[C@@H](C)C[C@H]1OCC(=O)NCCOCCS(=O)(=O)N1CCC(C(=O)Nc2ncc(SCc3ncc(C(C)(C)C)o3)s2)CC1

Activity [7]: Active
Activity [8]: Active
SMILES: CC(C)(C)c1cnc(CSc2cnc(NC(=O)C3CCN(S(=O)(=O)CCNC(=O)NC45CC6CC(CC(C6)C4)C5)CC3)s2)o1

Activity [10]: > 50%
SMILES: CC(C)[C@@H]1CC[C@@H](C)C[C@H]1OCC(=O)N1CCN(CCS(=O)(=O)N2CCC(C(=O)Nc3ncc(SCc4ncc(C(C)(C)C)o4)s3)CC2)CC1

Activity [7]: Active
Activity [8]: Active
SMILES: CC(C)[C@@H]1CC[C@@H](C)C[C@H]1OCC(=O)NCCN1CCC(C(=O)Nc2ncc(SCc3ncc(C(C)(C)C)o3)s2)CC1

Activity [7]: Active
Activity [8]: Active
SMILES: CC(C)[C@@H]1CC[C@@H](C)C[C@H]1OCC(=O)NCCCCN1CCC(C(=O)Nc2ncc(SCc3ncc(C(C)(C)C)o3)s2)CC1

Activity [11]: Active
Activity [12]: Active
Activity [13]: Active
Activity [14]: Active
Activity [15]: Active
Activity [16]: Active
Activity [17]: Active
Activity [18]: 40.2%
Activity [19]: Active
Activity [20]: Active
Activity [22]: Active
Activity [23]: Active
Activity [24]: Active
Activity [26]: Active
Activity [27]: Active
Activity [28]: Active
Activity [29]: Active
Activity [30]: Active
SMILES: CC(C)(C)c1cnc(CSc2cnc(NC(=O)C3CCN(CC(=O)NCCOCCOCCOCCNc4cccc5c4C(=O)N(C4CCC(=O)NC4=O)C5=O)CC3)s2)o1 (stereo not given)
Activity [1]: Active
Activity [3]: Active
Activity [4]: Active
inhibition [21]: Active
inhibition [25]: Active
IC50 [6]: 0.049 µM

Activity [31]: < 40%
Activity [32]: < 40%
SMILES: CC(C)[C@@H]1CC[C@@H](C)C[C@H]1OCC(=O)NCCCOCCS(=O)(=O)N1CCC(C(=O)Nc2ncc(SCc3ncc(C(C)(C)C)o3)s2)CC1
